Assay results from US11639350B2, “Heteroaryldihydropyrimidine derivatives and methods of treating hepatitis B infections” (Janssen Pharmaceutica NV, priority 2018, dated 2023).
Where two headings read alike, the source gives them in different places.

Key:
[1] = tested on: HBV; test: HBV inhibitory activity: HBV DNA in the culture medium of HepG2.2.15 cells by q-PCR; type: cell-based; settings: HepG2.2.15 cells, 6 days of compound treatment, HBV DNA in culture medium by q-PCR, highest concentration 10 μM, read-out: EC50
Summary of the method: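 Supernatant HBV DNA quantified by q-PCR after a 6-day compound exposure, with one mid-course medium change, of HepG2.2.15 cells (stably integrated HBV; 40,000 per well, 2% FBS). Eight-point 3-fold series topped at 10 μM for antiviral EC50; separate plates of 5,000 cells per well with 100 μM top give CC50.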

[2] = tested on: HepG2.2.15 cells; test: Cytotoxicity determination in HepG2.2.15 cells (CCK-8); type: cell-based; settings: 6 days of compound treatment, CCK-8, highest concentration 100 μM
Summary of the method: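 CC50 is from CCK-8 absorbance (450 nm, 630 nm reference) after 2.5 h with reagent. Before that, compounds were applied for six days, top concentration 100 μM, eight threefold dilutions, one mid-course medium change, to stably HBV-integrated HepG2.2.15 cells plated at 5,000/well in 2% FBS.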

Structure (SMILES) | EC50 [1] [nM] | CC50 [2] [nM] | EC50 ([1]; Hepatitis B virus, HepG2.2.15, 144 h) [nM]
CCOC(=O)C1=C(C2CCN(S(=O)(=O)C3CC(C)(C(=O)O)C3)CC2)NC(c2nccs2)=NC1c1ccc(F)cc1Br (single isomer, unassigned) [Compound 282D, (cis)-3-((4-(6-(2-Bromo-4-fluorophenyl)-5-(ethoxycarbonyl)-2-(thiazol-2-yl)-3,6-dihydropyrimidin-4-yl)piperidin-1-yl)sulfonyl)-1-methylcyclobutanecarboxylic Acid] | 39 | 11200 | –
CCOC(=O)C1=C(C2CCN(S(=O)(=O)C3CC(C)(C(=O)O)C3)CC2)NC(c2nccs2)=NC1c1cccc(F)c1Cl (single isomer, unassigned) [Compound 321A, (trans)-3-((4-(6-(2-Chloro-3-fluorophenyl)-5-(ethoxycarbonyl)-2-(thiazol-2-yl)-3,6-dihydropyrimidin-4-yl)piperidin-1-yl)sulfonyl)-1-methylcyclobutanecarboxylic Acid] | 12 | 17200 | –
COC(=O)C1=C(C2CCN(S(C)(=O)=O)C2)NC(c2nccs2)=NC1c1ccc(F)cc1Cl (single isomer, unassigned) [Compound 65A, 4-(2-Chloro-4-fluoro-phenyl)-6-(1-methanesulfonyl-pyrrolidin-3-yl)-2-thiazol-2-yl-1,4-dihydro-pyrimidine-5-carboxylic Acid Methyl Ester] | – | 69100 | 425
COC(=O)C1=C(C2CCN(S(N)(=O)=O)CC2)NC(c2nccs2)=NC1c1ccc(F)c(F)c1Cl (stereo not shown) [Compound 416B] | 6 | 13500 | –
COC(=O)C1=C(C23CC(N(C[C@@H](O)CO)S(C)(=O)=O)(C2)C3)NC(c2nccs2)=NC1c1ccc(F)cc1Cl (single isomer, unassigned) [Compound 376D] | 35 | 97300 | –
COC(=O)C1=C(C2CCN(S(C)(=N)=O)CC2)NC(c2nccs2)=NC1c1ccc(F)c(F)c1Cl (stereo not shown) [Compound 205B, methyl 4-(2-chloro-3,4-difluorophenyl)-6-(1-(S-methylsulfonimidoyl)piperidin-4-yl)-2-(thiazol-2-yl)-1,4-dihydropyrimidine-5-carboxylate] | 189 | 40500 | –
CCOC(=O)C1=C(C2CCN(S(=O)(=O)C3CC(C)(C(=O)O)C3)CC2)NC(c2nccs2)=NC1c1cccc(F)c1C (single isomer, unassigned) [Compound 429D, (cis)-3-((4-(−5-(Ethoxycarbonyl)-6-(3-fluoro-2-methylphenyl)-2-(thiazol-2-yl)-3,6-dihydropyrimidin-4-yl)piperidin-1-yl)sulfonyl)-1-methylcyclobutanecarboxylic Acid] | 49 | 16000 | –
COC(=O)C1=C(C2CCN(S(C)(=O)=O)C2)NC(c2nccs2)=NC1c1ccc(F)cc1Cl (single isomer, unassigned) [Compound 65C, 4-(2-Chloro-4-fluoro-phenyl)-6-(1-methanesulfonyl-pyrrolidin-3-yl)-2-thiazol-2-yl-1,4-dihydro-pyrimidine-5-carboxylic Acid Methyl Ester] | 378 | 19500 | –
COC(=O)C1=C(C2CCC(NS(C)(=O)=O)C2)NC(c2nccs2)=NC1c1cccc(F)c1Cl (single isomer, unassigned) [Compound 61E, Methyl 4-(2-chloro-3-fluorophenyl)-6-(3-(methylsulfonamido)cyclopentyl)-2-(thiazol-2-yl)-1,4-dihydropyrimidine-5-carboxylate] | 358 | 21700 | –
COC(=O)C1=C([C@H]2CC[C@H](C(=O)OC)CC2)NC(c2nccs2)=NC1c1ccc(F)cc1Cl (stereo partly shown) [Compound 18X] | 42 | 27900 | –
COC(=O)C1=C(C2COC(CO)C2)NC(c2nccs2)=NC1c1cccc(F)c1Cl (single isomer, unassigned) [Compound 219H, Methyl 4-(2-chloro-3-fluorophenyl)-6-(5-(hydroxymethyl)-tetrahydrofuran-3-yl)-2-(thiazol-2-yl)-1,4-dihydropyrimidine-5-carboxylate] | 334 | 1500 | –
